# Assay results: the NIST ThermoML archive (doi:10.1016/j.fluid.2013.06.028)
# ± gives the expanded uncertainty stated by the source.
# Test: activity coefficient (dimensionless); of the first substance listed, at infinite dilution; xn = mol fraction of the nth substance listed
# Conditions: 298 K; Liquid; Chromatography; x1 = 0
row,SMILES,activity coefficient
1,Cc1ccccc1 [toluene] + OCCO,93 ± 12
2,Clc1ccccc1 [chlorobenzene] + OCCO,40 ± 8
3,c1ccc2ccccc2c1 [naphthalene] + OCCO,238 ± 51
4,c1ccccc1 [benzene] + OCCO,32 ± 6
5,Brc1ccccc1 [bromobenzene] + OCCO,45 ± 10

# Further lines, results first:
row,activity coefficient,SMILES
1,42 ± 10,Ic1ccccc1 [iodobenzene] + OCCO
2,32 ± 10,Fc1ccccc1 [fluorobenzene] + OCCO
